ChEMBL document CHEMBL1126005 (Bioorg Med Chem Lett, 1991)

Columns and labels:
Adenosine A2 receptor = Adenosine A2 receptor (Rattus norvegicus, UniProt P29276+P30543)
Adenosine receptor A1 = target: T1, Adenosine receptor A1 (Rattus norvegicus, UniProt P25099); assay: biochemical
T1 sequence (P25099 whole entry): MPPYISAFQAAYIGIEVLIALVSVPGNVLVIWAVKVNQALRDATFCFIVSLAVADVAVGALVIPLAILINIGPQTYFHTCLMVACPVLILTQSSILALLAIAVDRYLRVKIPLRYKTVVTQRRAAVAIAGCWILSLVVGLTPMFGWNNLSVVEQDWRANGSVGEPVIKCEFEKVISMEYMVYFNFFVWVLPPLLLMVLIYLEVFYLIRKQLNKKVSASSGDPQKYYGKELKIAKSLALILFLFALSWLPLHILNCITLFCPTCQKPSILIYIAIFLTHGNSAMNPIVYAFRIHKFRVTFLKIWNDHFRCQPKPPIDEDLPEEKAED

SMILES	Ki (Adenosine A2 receptor) [nM]	Ki (Adenosine receptor A1) [nM]
OC[C@H]1OC(n2cnc3c(NC4CCCCC4)nc(O)nc32)[C@H](O)[C@@H]1O (some centres undefined)	15000	40
OC[C@H]1OC(n2cnc3c(NC4CCCC4)nc(O)nc32)[C@H](O)[C@@H]1O (some centres undefined)	7500	19
OC[C@H]1OC(n2cnc3c(NC4CCCCCC4)nc(O)nc32)[C@H](O)[C@@H]1O (some centres undefined)	6000	70
OC[C@H]1OC(n2cnc3c(NC4CCC5CCCCC5C4)nc(O)nc32)[C@H](O)[C@@H]1O (some centres undefined)	140000	30000
OC[C@H]1OC(n2cnc3c(NC4CC5CCC4C5)nc(O)nc32)[C@H](O)[C@@H]1O (some centres undefined)	80000	35
OC[C@H]1OC(n2cnc3c(NC4CCC4)nc(O)nc32)[C@H](O)[C@@H]1O (some centres undefined)	15000	55
OC[C@H]1OC(n2cnc3c(NC4CCCC4)nc(I)nc32)[C@H](O)[C@@H]1O (some centres undefined)	40000	20
